Data reported in patent US20240196898A1, “INSANITARY INSECT PEST CONTROL METHOD USING CONDENSED HETEROCYCLIC COMPOUND” (SUMITOMO CHEMICAL COMPANY, LIMITED, priority 2021, published 2024).

Tests used:
Type in all cases: in vivo
[1] = system: little red worker ants (Monomorium pharaonis); assay: Test Example 3: vial inner-wall contact test, 1 hour exposure, little red worker ants; settings: Monomorium pharaonis workers, after 1 day, read-out: Moribund and mortal rates (%) after 1 day; for mortality at 5 mg/m2: 5 mg/m^2 treated per area; for mortality at 100 mg/m2: 100 mg/m^2 treated per area; for mortality at 300 mg/m2: 300 mg/m^2 treated per area
Protocol: (§1) In a 20 mL volume vial, 0.2 mL of an acetone solution (containing 0.09% of a surfactant added therein) which contains prescribed amount of the present compound A, the present compound B, comparative compound 1, comparative compound 2, comparative compound 3, or comparative compound 4 was added dropwise and the inner wall of the vial was coated homogeneously with the chemicals and then air-dried. Thereafter, little red worker ants (Monomorium pharaonis) were released and the vial was sealed with a lid. After 1 hour, little red worker ants in the vial were transferred to a new plastic cup, followed by feeding 38 sucrose water. After 1 day, the number of dead and moribund individuals was examined, and moribund and mortal rates (%) were determined by the equation 3 below. Dead individuals are completely immobile individuals, and moribund individuals are individuals who cannot get up when turned on their backs, and are non-ambulatory.
Moribund and mortal rates (%)={(number of dead individuals+number of moribund individuals)/number of tested individuals}×100 (Equation 3)
The amount to be treated per area was set at 300, 100 and 5 mg/m^2.

[2] = system: German cockroaches (Blattella germanica); assay: Test Example 1: vial inner-wall residual contact test, German cockroaches; settings: German cockroach, read-out: Moribund and mortal rates (%); for mortality at 5 mg/m2: 5 mg/m^2 treated per area; for mortality at 50 mg/m2: 50 mg/m^2 treated per area; for mortality at 150 mg/m2: 150 mg/m^2 treated per area; for mortality at 300 mg/m2: 300 mg/m^2 treated per area; for mortality at 1000 mg/m2: 1,000 mg/m^2 treated per area
Protocol: as §1, with “five German cockroaches (Blattella germanica)” for “little red worker ants (Monomorium pharaonis)”, “After 1 hour, little red worker ants in the vial were transferred to a new plastic cup, followed by feeding 38 sucrose water. After 1 day, the number of dead and moribund individuals was examined, and moribund and mortal rates (%) were determined by the equation 3 below.” left out
Moribund and mortal rates (%)={(number of dead individuals+number of moribund individuals)/number of tested individuals}×100 (Equation 1)
The amount to be treated per area was set at 1000, 300, 150, 50 and 5 mg/m^2.

[3] = system: African malaria mosquitos (Anopheles gambiae); assay: Test Example 2: vial inner-wall contact test, 50 minutes exposure, female adult African malaria mosquitos; settings: Anopheles gambiae female adults, after 4 days, read-out: Moribund and mortal rates (%) after 4 days; for mortality at 5 mg/m2: 5 mg/m^2 treated per area; for mortality at 10 mg/m2: 10 mg/m^2 treated per area; for mortality at 300 mg/m2: 300 mg/m^2 treated per area
Protocol: In a 250 mL volume vial, 1.0 mL of an acetone solution (containing 0.09% of a surfactant added therein) which contains prescribed amount of the present compound A, the present compound B, comparative compound 1, comparative compound 2, comparative compound 3, or comparative compound 4 was added dropwise and the inner wall of the vial was coated homogeneously with the chemicals and then air-dried. Thereafter, female adult African malaria mosquitos (Anopheles gambiae) were released and the vial was sealed with a lid, followed by exposure for 50 minutes. 50 Minutes after exposure, African malaria mosquitos were transferred to a new plastic cup, followed by feeding sugar water. After 4 days, the number of dead and moribund individuals of African malaria mosquitos was examined, and moribund and mortal rates (%) were determined by the equation 2 below. Dead individuals are completely immobile individuals, and moribund individuals are individuals who are flightless and non-ambulatory.
Moribund and mortal rates (%)={(number of dead individuals+number of moribund individuals)/number of tested individuals}×100 (Equation 2)
The amount to be treated per area was set at 300, 10 and 5 mg/m^2.

[4] = system: Formosan subterranean worker termites (Coptotermes formosanus); assay: Test Example 4: treated filter paper contact test, 1 hour exposure, Formosan subterranean worker termites; settings: Coptotermes formosanus workers, after 3 days, read-out: Moribund and mortal rates (%) after 3 days; for mortality at 300 mg/m2: 300 mg/m^2 treated per area; for mortality at 500 mg/m2: 500 mg/m^2 treated per area; for mortality at 1000 mg/m2: 1,000 mg/m^2 treated per area
Protocol: 0.6 mL of an acetone solution containing prescribed amount of the present compound A, the present compound B, comparative compound 1, comparative compound 2, comparative compound 3, or comparative compound 4 was added dropwise on a filter paper having a diameter of 82 mm, followed by air drying. The filter paper was attached to a plastic petri dish having a diameter of 90 mm without gaps by adding dropwise 1.4 mL of water, and then Formosan subterranean worker termites (Coptotermes formosanus) were released and the vial was sealed with a lid, followed by exposure for 1 hours. After exposure for 1 hour, Formosan subterranean worker termites were transferred to a new plastic cup with bottom lined with the filter paper, followed by feeding water. After 3 days, the number of dead and moribund individuals of Formosan subterranean worker termites was examined, and moribund and mortal rates (%) were determined by the equation 4 below. Dead individuals are completely immobile individuals, and moribund individuals are individuals who are flightless and non-ambulatory.
Moribund and mortal rates (%)={(number of dead individuals+number of moribund individuals)/number of tested individuals}×100 (Equation 4)
The amount to be treated per area was set at 1,000, 500 and 300 mg/m^2.

Structure (SMILES)	mortality at 5 mg/m2 [1]	mortality at 100 mg/m2 [1]	mortality at 300 mg/m2 [1]	mortality at 5 mg/m2 [2]	mortality at 50 mg/m2 [2]	mortality at 150 mg/m2 [2]	mortality at 300 mg/m2 [2]	mortality at 1000 mg/m2 [2]	mortality at 5 mg/m2 [3]	mortality at 10 mg/m2 [3]	mortality at 300 mg/m2 [3]	mortality at 300 mg/m2 [4]	mortality at 500 mg/m2 [4]	mortality at 1000 mg/m2 [4]
CCS(=O)(=O)c1cc(C)cnc1-c1nc2cc(S(=O)(=O)C(F)(F)F)ccc2o1 [Comparative compound 4]	10%	20%	100%	10%	10%	20%	30%	100%	8%	15%	26%	10%	10%	100%
CCS(=O)(=O)c1cc(C2CC2)cnc1-c1nc2cc(S(=O)(=O)C(F)(F)F)ccc2o1 [Present compound B]	100%	100%	100%	100%	100%	100%	100%	100%	100%	100%	100%	100%	100%	100%
CCS(=O)(=O)c1cc(C(F)(F)F)cnc1-c1nc2cc([S+]([O-])C(F)(F)F)ccc2o1 (stereo not drawn) [Comparative compound 1]	30%	40%	100%	10%	30%	50%	50%	100%	3%	43%	53%	10%	30%	100%
CCS(=O)(=O)c1cc(C)cnc1-c1nc2cc([S+]([O-])C(F)(F)F)ccc2o1 (stereo not drawn) [Comparative compound 3]	10%	30%	100%	10%	30%	30%	40%	100%	6%	7%	35%	10%	10%	100%
CCS(=O)(=O)c1cc(C2CC2)cnc1-c1nc2cc([S+]([O-])C(F)(F)F)ccc2o1 (stereo not drawn) [Present compound A]	100%	100%	100%	100%	100%	100%	100%	100%	100%	100%	100%	100%	100%	100%
CCS(=O)(=O)c1cc(C(F)(F)F)cnc1-c1nc2cc(S(=O)(=O)C(F)(F)F)ccc2o1 [Comparative compound 2]	20%	50%	100%	10%	10%	20%	50%	100%	8%	13%	15%	10%	20%	100%
